Experimental data: the supplement of paper PMC10307832

Legend:
Assay in all cases: relative viability (nuclei count vs DMSO), 5 days (fraction); higher = more cells survive
[1] = compound: C=CC(=O)N1CCC[C@@H](n2nc(-c3ccc(Oc4ccccc4)cc3)c3c(N)ncnc32)C1 [Ibrutinib] + C[C@@H](Oc1cc(-c2cnn(C3CCNCC3)c2)cnc1N)c1c(Cl)ccc(F)c1Cl [Crizotinib] (partner 1 µM)
In short: (§1)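 Each reported value is a median over duplicate plates. It expresses relative viability: treated-well nuclei count divided by vehicle-well nuclei count. Lung cancer cell lines in 1536-well plates were dosed by pin tool a day after seeding, alone with one drug or with a fixed anchor-drug dose plus five library-drug doses (not always all listed) in √10 steps, and nuclei were counted after 5 days.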

[2] = compound: C=CC(=O)Nc1cc(-n2c(=O)ccc3cnc4ccc(-c5ccc(NS(C)(=O)=O)cc5)cc4c32)ccc1C [BMX-IN-1] + CS(=O)(=O)CCNCc1ccc(-c2ccc3ncnc(Nc4ccc(OCc5cccc(F)c5)c(Cl)c4)c3c2)o1 [Lapatinib] (partner 2 µM)
In short: as §1

[3] = compound: C=CC(=O)N1CCC[C@@H](n2nc(-c3ccc(Oc4ccccc4)cc3)c3c(N)ncnc32)C1 [Ibrutinib] + NC(=O)Nc1cc(-c2cccc(F)c2)sc1C(=O)N[C@H]1CCCNC1 [AZD7762] (partner 0.2 µM)
In short: as §1

[4] = compound: C=CC(=O)N1CCC[C@@H](n2nc(-c3ccc(Oc4ccccc4)cc3)c3c(N)ncnc32)C1 [Ibrutinib] + CCNC(=O)c1noc(-c2cc(C(C)C)c(O)cc2O)c1-c1ccc(CN2CCOCC2)cc1 [Luminespib] (partner 0.01 µM)
In short: as §1

Row | Cell Line | relative viability ([1]; first compound 0.005 µM) | relative viability ([1]; first compound 0.01581 µM) | relative viability ([1]; first compound 0.05 µM) | relative viability ([1]; first compound 0.1581 µM) | relative viability ([1]; first compound 0.5 µM) | relative viability ([2]; first compound 0.02 µM) | relative viability ([2]; first compound 0.2 µM) | relative viability ([2]; first compound 0.6325 µM) | relative viability ([2]; first compound 2 µM) | relative viability ([3]; first compound 0.005 µM) | relative viability ([3]; first compound 0.01581 µM) | relative viability ([3]; first compound 0.05 µM) | relative viability ([3]; first compound 0.1581 µM) | relative viability ([3]; first compound 0.5 µM) | relative viability ([4]; first compound 0.005 µM) | relative viability ([4]; first compound 0.01581 µM) | relative viability ([4]; first compound 0.05 µM) | relative viability ([4]; first compound 0.1581 µM) | relative viability ([4]; first compound 0.5 µM)
1 | IA-LM | 0.75 | 0.8 | 1.11 | 1 | 0.947 | 0.925 | 0.902 | 0.994 | 0.867 | – | – | – | – | – | – | – | – | – | –
2 | LCLC-103H | 1.06 | 1.03 | 1.02 | 1.06 | 1.04 | – | – | – | – | 0.829 | 0.706 | 0.733 | 0.835 | 0.745 | 1 | 0.905 | 0.896 | 1.09 | 0.897
3 | NCI-H441 | 0.669 | 0.842 | 0.919 | 0.707 | 0.881 | – | – | – | – | 1.18 | 1.15 | 1.22 | 1.28 | 0.952 | 0.362 | 0.359 | 0.266 | 0.36 | 0.235
4 | NCI-H520 | 0.725 | 0.578 | 0.727 | 0.704 | 0.861 | 1.04 | 0.903 | 1.05 | 0.838 | – | – | – | – | – | 0.252 | 0.237 | 0.247 | 0.232 | 0.269
5 | NCI-H522 | – | – | – | – | – | – | – | – | – | 0.847 | 0.698 | 0.683 | 0.766 | 0.751 | 1.11 | 1.05 | 1.17 | 1.07 | 0.922
6 | NCI-H661 | – | – | 1.09 | 0.904 | 0.873 | 0.564 | 0.458 | 0.452 | 0.517 | – | – | – | – | – | 1 | 0.835 | 0.772 | 0.934 | 0.653
7 | NCI-H1299 | 1 | 0.897 | 0.957 | 0.977 | 0.965 | 1 | 0.986 | 1.06 | 0.962 | – | – | – | – | – | – | – | – | – | –
8 | NCI-H1395 | – | – | – | – | – | 1.03 | 0.996 | 1.12 | 0.951 | 0.405 | 0.403 | 0.387 | 0.404 | 0.413 | 0.488 | 0.739 | 1.15 | 0.788 | 0.702
9 | NCI-H1563 | 0.815 | 0.874 | 0.803 | 0.875 | 0.8 | 0.837 | 0.86 | 0.903 | 0.824 | – | – | – | – | – | 0.538 | 0.524 | 0.519 | 0.519 | 0.53
10 | NCI-H1623 | – | – | – | – | – | – | – | – | – | – | – | – | – | – | 0.382 | 0.505 | 0.486 | 0.414 | 0.304
11 | NCI-H1648 | – | – | – | – | – | – | – | – | – | 0.697 | 0.66 | 0.673 | 0.762 | 0.865 | – | – | – | – | –
12 | NCI-H1650 | 0.845 | 0.919 | 0.934 | 1.09 | 0.744 | 0.666 | 0.941 | 0.88 | 0.77 | – | – | – | – | – | 0.211 | 0.196 | 0.192 | 0.194 | 0.209
13 | NCI-H1703 | – | – | 0.839 | 0.934 | 0.729 | 1.69 | 1.24 | 1.31 | 0.677 | – | 0.126 | – | 0.148 | 0.19 | – | – | – | – | –
14 | NCI-H1793 | – | – | – | – | – | 0.755 | 1.22 | 0.72 | 0.872 | 0.395 | 0.33 | 0.408 | 0.85 | 0.13 | – | 0.155 | 0.196 | 0.177 | 0.151
15 | NCI-H2009 | 1.04 | 1.04 | 1.08 | 1.11 | 1.1 | 0.661 | 1.04 | 1.1 | 0.893 | – | – | – | – | – | 1.07 | 1.06 | 1.07 | 1.02 | 1.05
16 | NCI-H2023 | 0.55 | 0.637 | 0.423 | 0.603 | 0.356 | 1.19 | 0.954 | 1.19 | 0.855 | – | – | – | – | – | 0.671 | 0.678 | 0.665 | 0.737 | 0.907
17 | NCI-H2228 | 0.4 | 0.359 | 0.36 | 0.569 | 0.359 | 1.89 | 1.09 | 1.52 | 0.929 | – | – | – | – | – | 0.121 | – | 0.116 | 0.131 | 0.144
18 | NCI-H2342 | – | – | – | – | – | – | – | – | – | 0.317 | 0.6 | 0.499 | 0.472 | 0.345 | 0.719 | 0.608 | 0.707 | 0.655 | 0.497
19 | SK-LU-1 | 0.869 | 0.741 | 1.04 | 1.1 | 0.859 | 1.3 | 0.779 | 0.938 | 0.771 | – | – | – | – | – | 0.205 | 0.184 | 0.24 | 0.199 | 0.194
20 | SW 900 | – | – | – | – | – | – | – | – | – | 0.472 | 0.565 | 0.597 | 0.513 | 0.512 | – | – | 0.159 | 0.175 | 0.19
21 | SW 1573 | 0.87 | 0.807 | 0.803 | 0.986 | 0.77 | 1.31 | 1.29 | 1.24 | 0.701 | – | – | – | – | – | 0.419 | 0.382 | 0.198 | 0.288 | 0.582
22 | UMC-11 | 0.538 | 0.598 | 0.596 | 0.681 | 0.57 | 1.1 | 1.1 | 1.28 | 1.1 | – | – | – | – | – | 0.873 | 0.999 | 1.07 | 1.05 | 0.98
